# Reference: US9428520B2, “Daphne genkwa extracts, and pharmaceutical composition containing fractions of the extracts or compounds separated from the extracts as active ingredients for preventing or treating atopic dermatitis” (priority 2011, dated 2016)
# How the values were obtained:
# NC mouse = experiment: Atopy treatment effect in NC mouse model; assay type: in vivo; settings: local spreading on skin, FIG. 3
# From the text: NC mouse is the mouse showing typical atopy symptom when it is raised in the conventional space. Genekwadapnin or yuanhuacine was spread locally on NC mouse starting to show atopy symptom, followed by observation of changes of atopy symptom.
# Balb/C mouse = experiment: Atopy treatment effect in DNCB atopy induced mouse model; assay type: in vivo; settings: score 10˜13 group with severe atopic symptoms, FIG. 4
# Description: DNCB, one of allergens, was spread on the shaved skin of a normal Balb/C mouse to induce atopy intentionally. Atopy symptoms varied from the dose of DNCB and the treatment period, which were classified into different score groups (score 4˜8 group and score 10˜13 group). In the mouse group (score 4˜8 group) which was treated with a lower dose of DNCB, atopic skin was recovered to normal skin within 24 hours from the treatment of genekwadapnin or yuanhuacine. […] At that time, the test was performed in duplicate with 10 mice each.
# PKC isotype = experiment: Intracellular mechanism: phosphorylation level of PKC isotype in NK92 cells (western blot); assay type: cell-based, human; settings: 500 ng/ml, 12 hours, FIG. 6
# Description: To investigate the intracellular mechanism of genekwadapnin or yuanhuacine, the NK92 cells cultured in <Example 2> were treated with genekwadapnin or yuanhuacine at the concentration of 500 ng/ml. 12 hours later, phosphorylation level of PKC isotype was investigated by using antibodies. The quantity of protein used herein was confirmed by using GAPDH.
# Particularly, the cells treated with genekwadapnin or yuanhuacine were dissolved in ice by using cold SDS-lysis buffer [(50 mM HEPES, 150 mM NaCl, 0.2 mM EDTA, 0.5% NP-40, 0.1% SDS, 1 mM Na3VO4, 10 mM NaF, and complete Protein Inhibitor Cocktail (Roche)] for 30 minutes. The dissolved cell solution was spinned at the speed of 13,000 rpm for 30 minutes in a high-speed rotating machine to precipitate insoluble part and then water soluble part was separated. The separated cell aqueous solution was quantified, followed by electrophoresis using 10˜20% SDS-PAGE. Cellular protein separated on the gel was transcribed onto PVDF membrane (Millipore, Billerica, Mass., USA) at 100 V for 2 hours. To confirm PCK isotype phosphorylated in the cells, poly rabbit anti-PKD1, -phosphoPKD1 (Ser916), -phosphoPKDl (Ser744/748), -phosphoPKCα/βII, -phosphoPKCδ, -phosphoPKCθ, and -phosphoPKCζ/λ IgG (Cell signaling Technology, USA) (1:1000) were used as primary antibodies. As a secondary antibody, horseradish peroxidase peroxidase-conjugated goat anti-rabbit IgG (Santa Cruz Biotechnology, USA) (1:3000) was treated at room temperature for 60 minutes. To confirm the equal amount of cellular protein, poly rabbit anti-GAPDH IgG (Santa Cruz Biotechnology, Pasadena, Calif., USA) was used.
# atopy patients = experiment: Atopy treatment effect in atopy patient; assay type: in vivo, human; settings: 5 ug/ml spread on the skin, FIG. 5
# Description: After spreading genekwadapnin or yuanhuacine on the skin of atopy patients, atopy treatment effect of the compound was confirmed.
# Particularly, 5 ug/ml of genekwadapnin or yuanhuacine was spread on the skin of atopy patients, followed by observation for 5˜20 days. The treatment effect was confirmed by Medream Skin Clinic (Goejeong-dong, Seogu, Daejeon, Korea).
# A549 cells = experiment: RT-PCR of cytokine mRNA levels in A549 cells; assay type: cell-based, human; settings: 2 ng, FIG. 2A
# Description: (§1) Human cell lines (A549, NK92, muDC, Jurkat) were cultured in a 37° C., 5% CO2 humidified incubator.
# (§2) RT-PCR was performed to investigate the changes of mRNA levels in relation to the inducement of IFN-γ, IL-2, and IL-12 in A549, NK92, muDC, and Jurkat cells cultured in <Example 2>. These cells were cultured in the presence of 2 ng of genekwadapnin or yuanhuacine for 12 hours.
# (§3) Phase II RT-PCR was performed with oligo-dT primer, reverse transcriptase, specific primer set, and Taq polymerase (Takara, Shiga, Japan). Total RNA was isolated according to the standard protocol. cDNA was synthesized by using Accusript High Fidelity 1st Strand cDNA Synthesis Kit (Stratagene) according to the manufacturer's instruction. 1 μl of the synthesized cDNA was used for PCR with 20 μl of reaction mixture containing 0.5 U ExTaq DNA polymerase, 1× buffer, 1 mM dNTP mix (Takara) and specific primer set. PCR amplification was performed using GeneAmp PCR system 2700 (Applied Biosystems, Foster city, CA, USA) as follows: predenaturation at 94° C. for 5 minutes, denaturation at 94° C. for 45 seconds, annealing at 56° C. for 45 seconds, polymerization at 72° C. for 1 minute, 25˜40 cycles from denaturation to polymerization, and final extension at 72° C. for 7 minutes. PCR primers shown in [Table 1] were designed by using Primer 3 program, which were purchased from Bioneer (Daejeon, Korea). At this time, GAPDH was used as the internal control.
# (§4) The PCR product was electrophoresed on 1.5% agarose gel, which was stained with ethidium bromide (EtBr) and then visualized by using Gel Doc 2000 UV trans-illuminator (Bio-Rad Laboratories, Hercules, Calif., […]). Analysis was performed with Quantity One software (Bio-Rad Laboratories).
# NK92 cells = experiment: RT-PCR of cytokine mRNA levels in NK92 cells; assay type: cell-based, human; settings: 2 ng, FIG. 2A
# Description: as §1
# Particularly, NK92 (human NK lymphoma), the IL-2 dependent NK cell line, was purchased from ATCC (American Type Culture Collection). The NK92 cell line was maintained in α-MEM (Life Technologies, Karlsruhe, Germany) supplemented with 20% FCS (HyClone, Logan, Utah), 2 mM […], 100 μg/ml penicillin, 100 μg/ml streptomycin (Life Technologies) and 100 U/ml IL-2 (Chiron, Emeryville, Calif.).
# as §2
# as §3, with “At this time, GAPDH was used as the internal control.” left out
# as §4
# [1] = NK92 cells (printed NR92), 12 hours after treatment
structure (smiles),measurement,setting,value
C=C(C)[C@@]12OC3(/C=C/C=C/CCCCC)O[C@@H]1[C@@H]1[C@@H]4O[C@]4(CO)[C@@H](O)[C@]4(O)C(=O)C(C)=C[C@H]4[C@@]1(O3)[C@H](C)[C@H]2OC(=O)c1ccccc1 [yuanhuacine],atopy symptom on the back where the compound was spread,NC mouse,significantly reduced
same,"skin biopsy: distribution of inflammatory cells, phenotype of the treated area",NC mouse,almost normal phenotype
same,speed of recovery versus the control group,Balb/C mouse,at least two times faster
same,PKD1 level,PKC isotype,not changed
same,phosphorylation of other types of PKC isotype,PKC isotype,not phosphorylated
same,"phosphorylation of serin residues (744th/748th, and 916th sites of PKD1 protein)",PKC isotype,confirmed
same,time until atopic skin was recovered to normal,atopy patients; minor symptoms,5 days
same,time until atopic skin was recovered to normal,atopy patients; severe symptoms,20 days
same,"transcript of type II cytokine, IL-4",A549 cells; 12 hours after treatment,not induced
same,"transcripts of Type I cytokines, IFN-γ, IL-2, and IL-12",A549 cells; 12 hours after treatment,significantly increased
same,transcripts of IL-15 and IL-18,A549 cells; 12 hours,not controlled
same,"transcript of type II cytokine, IL-4",NK92 cells; [1],not induced
same,"transcripts of Type I cytokines, IFN-γ, IL-2, and IL-12",NK92 cells; [1],significantly increased
same,transcripts of IL-15 and IL-18,"NK92 cells; NK92 cells, 12 hours",not controlled
